Laboratory results as given in ChEMBL document CHEMBL1201862, “PubChem BioAssay data set” (2004).
Calls of active or inactive are those of the source.

Experiments:
[1] = target: T1, Mannose-6-phosphate isomerase (Homo sapiens, UniProt P34949); assay: MPI inhibition at elevated mannose 6-phosphate – biochemical, fluorescence intensity, high mannose 6-phosphate, primary screen (AID 1220)
T1 sequence (P34949 whole entry): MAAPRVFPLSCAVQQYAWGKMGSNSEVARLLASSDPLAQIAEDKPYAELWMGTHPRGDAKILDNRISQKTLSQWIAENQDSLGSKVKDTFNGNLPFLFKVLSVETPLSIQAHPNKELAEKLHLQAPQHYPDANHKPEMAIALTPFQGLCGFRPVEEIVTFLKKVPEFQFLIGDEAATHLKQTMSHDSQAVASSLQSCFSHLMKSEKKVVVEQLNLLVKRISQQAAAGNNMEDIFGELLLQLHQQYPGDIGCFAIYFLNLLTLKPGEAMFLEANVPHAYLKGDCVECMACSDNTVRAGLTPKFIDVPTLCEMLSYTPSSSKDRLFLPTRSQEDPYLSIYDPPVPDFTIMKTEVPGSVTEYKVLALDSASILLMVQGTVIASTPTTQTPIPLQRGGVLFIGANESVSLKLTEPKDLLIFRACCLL

[2] = target: T2, Apoptotic protease-activating factor 1 (Homo sapiens, UniProt O14727); assay type: functional
T2 sequence (O14727 whole entry): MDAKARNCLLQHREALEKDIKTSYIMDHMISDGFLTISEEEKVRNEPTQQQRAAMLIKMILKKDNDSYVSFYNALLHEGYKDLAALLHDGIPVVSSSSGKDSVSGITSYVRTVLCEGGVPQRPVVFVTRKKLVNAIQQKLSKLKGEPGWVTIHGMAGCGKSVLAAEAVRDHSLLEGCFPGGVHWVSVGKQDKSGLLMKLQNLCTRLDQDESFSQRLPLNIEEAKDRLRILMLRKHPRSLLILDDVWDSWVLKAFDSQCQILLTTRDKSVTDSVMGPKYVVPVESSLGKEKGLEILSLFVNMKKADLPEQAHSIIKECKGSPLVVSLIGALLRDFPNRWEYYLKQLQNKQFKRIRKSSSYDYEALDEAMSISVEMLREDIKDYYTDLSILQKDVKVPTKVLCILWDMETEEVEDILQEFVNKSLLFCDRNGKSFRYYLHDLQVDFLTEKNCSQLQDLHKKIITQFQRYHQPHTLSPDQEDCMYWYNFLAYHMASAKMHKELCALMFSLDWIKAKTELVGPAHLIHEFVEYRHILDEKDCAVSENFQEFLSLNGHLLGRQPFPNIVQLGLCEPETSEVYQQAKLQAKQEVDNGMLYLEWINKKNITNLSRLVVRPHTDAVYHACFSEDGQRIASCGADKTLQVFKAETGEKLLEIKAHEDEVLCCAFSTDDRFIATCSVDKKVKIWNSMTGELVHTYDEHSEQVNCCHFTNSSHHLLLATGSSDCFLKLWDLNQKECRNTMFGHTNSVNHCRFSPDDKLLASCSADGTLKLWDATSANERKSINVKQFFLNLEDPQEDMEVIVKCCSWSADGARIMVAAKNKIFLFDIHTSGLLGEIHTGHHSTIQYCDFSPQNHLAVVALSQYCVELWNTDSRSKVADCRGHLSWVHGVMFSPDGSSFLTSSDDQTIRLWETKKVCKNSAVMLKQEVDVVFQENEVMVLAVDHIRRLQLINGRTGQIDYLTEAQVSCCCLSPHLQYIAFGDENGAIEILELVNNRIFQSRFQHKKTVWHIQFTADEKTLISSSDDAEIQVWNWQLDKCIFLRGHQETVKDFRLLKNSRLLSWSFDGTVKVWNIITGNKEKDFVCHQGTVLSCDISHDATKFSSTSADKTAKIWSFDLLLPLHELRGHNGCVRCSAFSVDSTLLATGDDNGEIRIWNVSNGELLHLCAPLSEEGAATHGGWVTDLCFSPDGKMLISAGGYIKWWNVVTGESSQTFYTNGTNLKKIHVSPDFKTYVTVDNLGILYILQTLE

cells = assay type: functional, cell-based
[3] = Counterscreen for AddAB inhibitors: absorbance-based bacterial cell-based high throughput dose response assay for inhibitors of bacterial viability. [Related pubchem assays (depositor defined):AID435030, AID449728, AID449731, AID488942, AID488955, AID488956]; assay type: functional
Escherichia coli = assay: microbe, parasite or virus in culture
Aminopeptidase N = target: T3, Aminopeptidase N (Plasmodium falciparum FcB1/Columbia, UniProt O96935); assay: malaria alanyl aminopeptidase activity blockers – biochemical, fluorogenic H-Leu-NHMec substrate, 1536-well (AID 1445); parameters: species or system Plasmodium falciparum 3D7, 3D7
T3 sequence (O96935 whole entry): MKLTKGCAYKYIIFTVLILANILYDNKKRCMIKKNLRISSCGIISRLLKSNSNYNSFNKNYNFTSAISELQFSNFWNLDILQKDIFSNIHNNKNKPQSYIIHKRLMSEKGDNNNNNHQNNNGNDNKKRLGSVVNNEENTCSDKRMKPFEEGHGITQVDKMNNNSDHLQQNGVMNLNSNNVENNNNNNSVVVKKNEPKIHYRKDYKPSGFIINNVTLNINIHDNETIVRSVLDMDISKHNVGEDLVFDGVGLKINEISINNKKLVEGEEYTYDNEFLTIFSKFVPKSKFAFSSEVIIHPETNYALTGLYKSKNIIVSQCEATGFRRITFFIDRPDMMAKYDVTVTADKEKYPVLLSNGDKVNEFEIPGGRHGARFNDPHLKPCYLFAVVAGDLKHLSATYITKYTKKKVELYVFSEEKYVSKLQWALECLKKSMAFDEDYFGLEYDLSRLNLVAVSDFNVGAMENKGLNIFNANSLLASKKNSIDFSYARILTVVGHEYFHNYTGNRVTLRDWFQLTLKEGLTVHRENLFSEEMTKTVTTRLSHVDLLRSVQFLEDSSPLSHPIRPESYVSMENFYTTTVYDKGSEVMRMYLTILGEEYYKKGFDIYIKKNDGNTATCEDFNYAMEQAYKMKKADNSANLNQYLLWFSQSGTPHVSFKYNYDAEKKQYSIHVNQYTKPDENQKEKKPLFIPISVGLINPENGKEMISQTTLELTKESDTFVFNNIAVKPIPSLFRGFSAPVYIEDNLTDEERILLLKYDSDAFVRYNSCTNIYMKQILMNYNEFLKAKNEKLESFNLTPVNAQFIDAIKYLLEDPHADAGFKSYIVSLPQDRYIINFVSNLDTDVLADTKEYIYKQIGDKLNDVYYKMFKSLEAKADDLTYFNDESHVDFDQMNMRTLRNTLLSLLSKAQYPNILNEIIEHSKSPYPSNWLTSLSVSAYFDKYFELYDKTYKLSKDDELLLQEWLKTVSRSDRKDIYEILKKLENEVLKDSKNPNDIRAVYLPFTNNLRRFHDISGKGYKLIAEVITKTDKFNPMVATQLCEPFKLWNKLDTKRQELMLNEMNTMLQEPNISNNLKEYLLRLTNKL

[4] = target: Induced myeloid leukemia cell differentiation protein Mcl-1 (Homo sapiens, UniProt Q07820); assay type: functional
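For EC50 in this document: proteasome chymotrypsin-like activity measured in U2OS cells; potency is for inhibition of proteasome activity.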

Induced myeloid leukemia cell differentiation protein Mcl-1, sequence (Q07820 whole entry): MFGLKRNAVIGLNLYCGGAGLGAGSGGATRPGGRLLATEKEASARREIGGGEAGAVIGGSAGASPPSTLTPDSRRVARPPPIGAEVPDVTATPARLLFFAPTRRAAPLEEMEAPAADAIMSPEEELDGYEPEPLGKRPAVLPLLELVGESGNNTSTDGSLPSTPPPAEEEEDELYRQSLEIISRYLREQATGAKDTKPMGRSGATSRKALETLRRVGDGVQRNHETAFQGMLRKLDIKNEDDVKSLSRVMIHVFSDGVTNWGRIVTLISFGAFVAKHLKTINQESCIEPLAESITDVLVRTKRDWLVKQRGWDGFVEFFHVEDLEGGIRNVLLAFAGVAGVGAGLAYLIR

## CC1(C)Cc2ccccc2C2=NNC(=O)C2=N1
[1]
  IC50: 14.1 µM (active)
[2]
  IC50: 14 µM (active)

## CCCC(=O)NC(c1ccc(C(C)C)cc1)c1ccc2cccnc2c1O (configuration not stated)
cells
  EC50: > 350 µM (not active)
[3]
  IC50: > 119 µM (inactive)

## O=[N+]([O-])c1ccc(Sc2cccc[n+]2[O-])c2nonc12
Escherichia coli
  AC50: 8.5 µM (active)

## Oc1c(Cl)cc(Cl)c(Cl)c1Cc1c(O)c(Cl)cc(Cl)c1Cl [HEXACHLOROPHENE]
Aminopeptidase N
  IC50: 58 µM (active)
[4]
  IC50: 14.8 µM (active)
